Patent US20100119454A1, “Use of the conserved Drosophila NPFR1 system for uncovering interacting genes and pathways important in nociception and stress response” (priority 2008, published 2010)

Legend:
[1] = system: pain-expressing sensory neurons; assay: Calcium imaging (yellow cameleon 2.1, SOARS analysis) of larval sensory neurons; type: cell-based, Drosophila melanogaster
Method: Imaging. The live images of second instar larvae (ca. 48 h AEL) expressing DsRed driven by pain-gal4 were obtained using a Leica epifluorescence microscope. The immunofluorescence images were taken by a Zeiss LSM 510 Meta confocal microscope and processed by Zeiss AIM Image Examiner. […] Larvae were dissected in a modified HL6 solution containing lactose (HL6-Lac, 23.7 mM NaCl, 15 mM MgCl2, 24.8 mM KCl, 0.5 mM CaCl2, 10 mM NaHCO3, 5 mM HEPES, 240 mM lactose)^38. An incision was made along the dorsal midline, and the gut and the fat bodies were removed. The tissue was placed ventral side up in HL6 solution on a silicon-coated coverslip (Sylgard 184, DOW Corning Corp., Midland, Mich.) in a Dvorak-Stotler perfusion chamber (Lucas Highland, Chantilly, Va.). A minute amount of cyanoacrylate glue (Nexaband S/C, Abott Laboratories, North Chicago, Ill.) was applied to the edge of the cuticle using a glass micropipette to immobilize the tissue. The imaging was performed on a Zeiss LSM 510 Meta confocal microscope (Carl Zeiss Microimaging, Thornwood, N.Y.). YC2.1 was excited at 458 nm with an argon laser. Emission fluorescence was filtered by a BP 475-525 filter (cyan) and an LP 530 filter (yellow). 256×256 pixel images for ratiometric analysis were collected at 1 frame s^−1. The tissue was perfused at a rate of 8.3 ul s^−1 with HL6-Lac, periodically alternating with a modified HL6 solution containing fructose (HL6-Fru, with 240 mM fructose substituting 240 mM lactose in HL6-Lac), switching at 120-second intervals for a total of 800 seconds. The images were subsequently analyzed with the SOARS method (Statistical Optimization for the Analysis of Ratiometric Signals, Version 1.1) as described in the following references, which are hereby incorporated by reference herein in their entireties (Fan, X., et al., 2007; Broder, J., et al., 2007), using Matlab (MathWorks, Natick, Mass.; also see http://www.engr.uga.edu/research/groups/atslab/Software.html).
In brief, SOARS is a multivariate statistical optimization procedure performed on both CFP and YFP channels of the FRET imaging data. The analysis results in a set of eigenimages and associated time courses that represent the part of the imaged signal displaying statistically significant spatial correlation and temporal anti-correlation (e.g., the aspects of the signal that are demonstrable due to FRET). These eigenimages represent the spatial distribution of anti-correlated FRET changes in response to sugar stimulation. Because the stimulus was periodic, the time courses were tested for the presence of stimulus-locked activity. To quantify the significance of the periodic part of the FRET response, p-values for a periodic (sinusoidal) response at the stimulus frequency were calculated using multitaper harmonic analysis (a common method for the detection of sinusoids in noisy data) as described in the following references, which are hereby incorporated herein by reference in their entirety. (Thomson 1982; Mitra et al., 1999, Sornborger et al., 2003; Mitra et al., 2008).
In vivo calcium imaging. […] To quantify the significance of anti-correlated FRET response to fructose stimulation, p-values were calculated for a periodic (sinusoidal) response at the stimulus frequency using multitaper harmonic analysis, a common method for the detection of sinusoids in noisy data (Thomson, 1982), which is hereby incorporated by reference herein in its entirety.

[2] = system: D. melanogaster post-feeding larvae; assay: Larval food aversion (migration) assay on soft agar media; type: in vivo, Drosophila melanogaster; conditions: for response of wild type larvae to sugar media: 10% sugar media, wild type larvae (FIG. 2B); for triggering larval wandering: 10% in soft agar paste, post-feeding larvae
Method: Behavioral Assays. The food aversion assay was performed in plastic petri dishes (60 mm in diameter). Each apple juice-agar plate contains a mix (ca. 7 ml) of 1 g of Drosophila agar powder (USB, Swampscott, Mass.) and 6 ml apple-juice solution (0.1 g carbohydrates per ml, equivalent to 20% of frozen concentrate). Other soft agar media were made by mixing 1 g agar powder with 6.5 ml of distilled water or solution containing 10% fructose, 10% lactose, 10% sorbitol or 50 μM capsaicin, respectively. The amount of agar powder may require adjustment depending on agar quality. Twenty-five new post-feeding larvae (96 h AEL) were transferred onto a plate. The larvae were allowed to move freely on the medium, and those that crawled onto the plastic surface became less mobile and eventually formed pupae there. The percent of pupae on agar media was scored after 24 hours. All experiments were performed at room temperature except for the temperature shift assay. In these experiments, larvae and food media were pre-incubated at 30° C. for 60 min before the assay. The larvae were subsequently transferred onto the medium and kept at 30° C. All assays were performed in the dark. At least three separate trials were performed per assay.
(§1) Behavioral assays. The migration assay on soft agar media was performed as described previously (Xu et al., 2008), which is hereby incorporated by reference herein in its entirety. Twenty-five postfeeding larvae (96 h AEL) in one plate were allowed to move freely on the medium, and those that crawled onto the plastic surface became less mobile, and eventually formed pupae there. The percentage of pupae on agar media was scored after 24 hours. The clumping assay was also described in the following, which is hereby incorporated by reference herein in its entirety (Wu et al., 2003). Briefly, 45 mm petri dishes containing solid fructose agar (3% agar in a 10% fructose solution) were coated with a thin layer of yeast paste (0.5 g yeast powder in 10% fructose solution). Thirty larvae per plate were allowed to browse for 30 min, and those in clumps were scored immediately. The social burrowing assay was performed on solid agar media containing apple juice or 10% fructose, as described (Wu et al., 2003). All assays, unless stated otherwise, were performed at room temperature in the dark. At least three separate trials were performed per assay.

[3] = system: D. melanogaster post-feeding larvae; assay: Larval aggregation / cooperative burrowing on solid agar media; type: in vivo, Drosophila melanogaster; conditions: solid 10% fructose agar, post-feeding larvae 96 hr AEL
Method: as §1

[4] = target: T1, VR1E600K, a variant of vanilloid receptor TRPV1 (Rattus norvegicus, UniProt O35433, E600K); assay: Capsaicin avoidance (migration) of larvae expressing mammalian TRPV1 in PAIN neurons; type: in vivo, Drosophila melanogaster
T1 construct: expressed in transfected cells; host or cells: Drosophila melanogaster larvae, PAIN neurons (pain-gal4 x UAS-VR1E600K / UAS-TRPV1 transgenic line, Marella et al. 2006)
T1 sequence (O35433 whole entry E600K, the tested form may be a part): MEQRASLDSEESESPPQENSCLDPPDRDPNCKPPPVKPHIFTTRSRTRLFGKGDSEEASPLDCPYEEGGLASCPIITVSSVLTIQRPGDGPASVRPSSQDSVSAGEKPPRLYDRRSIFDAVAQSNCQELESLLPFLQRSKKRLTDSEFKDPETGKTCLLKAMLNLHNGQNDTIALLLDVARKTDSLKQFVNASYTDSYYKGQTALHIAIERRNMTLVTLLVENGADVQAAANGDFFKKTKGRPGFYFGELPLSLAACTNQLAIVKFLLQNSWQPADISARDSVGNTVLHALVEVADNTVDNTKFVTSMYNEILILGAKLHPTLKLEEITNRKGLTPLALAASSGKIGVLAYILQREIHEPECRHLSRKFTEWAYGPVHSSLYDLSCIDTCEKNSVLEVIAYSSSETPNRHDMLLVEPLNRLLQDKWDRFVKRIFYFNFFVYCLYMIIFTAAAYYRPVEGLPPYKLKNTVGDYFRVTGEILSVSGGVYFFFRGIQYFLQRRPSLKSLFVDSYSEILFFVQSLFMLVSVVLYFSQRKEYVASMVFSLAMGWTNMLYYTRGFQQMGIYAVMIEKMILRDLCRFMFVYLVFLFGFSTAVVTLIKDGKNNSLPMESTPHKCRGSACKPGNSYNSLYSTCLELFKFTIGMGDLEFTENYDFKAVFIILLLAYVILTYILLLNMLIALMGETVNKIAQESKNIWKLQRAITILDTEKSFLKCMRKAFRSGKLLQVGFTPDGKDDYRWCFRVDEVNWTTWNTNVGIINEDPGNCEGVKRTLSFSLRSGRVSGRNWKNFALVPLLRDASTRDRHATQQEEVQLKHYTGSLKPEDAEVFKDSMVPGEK
Excerpt: To provide further evidence that larval wandering behavior represents an aversive response to fructose, pain-gal4 was used to express a mammalian TRP channel protein VR1E600K, a variant of vanilloid receptor TRPV1 responsive to a spicy substance capsaicin from chili peppers (see the following references, which are incorporated herein by reference in their entireties: Caterina, M. J., et al., 1997; Marella, S., et al., 2006; Tobin, D. M., et al., 2002).
Behavioral assays. The migration assay on soft agar media was performed as described previously (Xu et al., 2008), which is hereby incorporated by reference herein in its entirety. […] The percentage of pupae on agar media was scored after 24 hours. […]

[5] = target: T1, VR1E600K, a variant of vanilloid receptor TRPV1; assay: Two-choice medium preference assay (capsaicin vs capsaicin-free media); type: in vivo
Method: The two-choice medium preference assay was performed on a 2.5% agar plate. The apple juice or water agar paste is the same as described above. 10 μl of 5 mM capsaicin stock solution (in 100% ethanol) or 10 μl ethanol was added to each ml of the agar media. 30 larvae were washed extensively to remove any food particles. They were then placed between the two piles of capsaicin and capsaicin-free media (1 cm in diameter), which are located 4 mm apart. The number of larvae in each medium was recorded after 20 min. A preference index was defined as the fraction of larvae choosing the capsaicin-free medium, minus the fraction of larvae choosing the capsaicin medium.

[6] = target: T2, rat TRPV1 (Rattus norvegicus, UniProt O35433, E600K); assay: Calcium imaging of HEK 293 cells (Fluo-4/Fura-red), capsaicin-induced Ca2+ influx; type: cell-based
T2 construct: expressed in transfected cells; host or cells: HEK293 cells, transient transfection with pcDNA3.1D (Invitrogen) carrying TRPV1 (E600K) cDNA
T2 sequence (O35433 whole entry E600K): as the sequence (O35433 whole entry E600K, the tested form may be a part) above
Method: Transfection and Calcium imaging of HEK 293 cells. HEK293 cells were maintained under standard conditions (37° C., 5% CO2) in Dulbecco's Modified Eagle's Medium (Mediatech) supplemented with 10% fetal bovine serum, penicillin and streptomycin. pcDNA3.1D directional expression system (Invitrogen) was used to clone and express rat TRPV1 and fly NPFR1 cDNA in HEK293 cells. TRPV1 cDNA was PCR amplified from TRPV1 (E600K) sequence (Marella et al., 2006), using the following primers: 5′ […] 3′ (SEQ ID NO: 11) and 5′ […] 3′ (SEQ ID NO: 12). NPFR1 cDNA was PCR amplified from an NPFR1 cDNA plasmid(34), using two primers: 5′ […] 3′ (SEQ ID NO: 13) and 5′ […] 3′ (SEQ ID NO: 14). HEK293 cells were cultured on 8-well polyornithine-coated chambered coverglasses (Nunc) for 24 hrs before transfection. A suspension of 200 μl of water containing 0.4 μg plasmid DNA and 0.8 μl of Lipofectamine 2000 (Invitrogen) was used for transfection. The amounts of TRPV1 and NPFR1 cNDA used were 20 ng and 200 ng, respectively. pcDNA3.1 vector DNA was supplemented, when necessary, to ensure the equal amount of total DNA per transfection.
Calcium imaging was performed between 36-42 hours post transfection at 23° C. Cells were loaded with 1 μM Fluo-4 and 2 μM Fura-red (Invitrogen) for 90 min in Hanks' balanced salt solution (HBSS; Gibco), washed once with HBSS, and imaged using a Zeiss Axiovert 200M scope equipped with a Zeiss LSM 510 Meta laser scanning module. Dyes were excited at 488 nm with argon laser. Emission fluorescence was filtered by a BP505-530 and an LP585 filter. Images were collected for 300 s upon capsaicin stimulation at 1 frame s^−1, and analyzed with the SOARS analysis. NPF was synthesized by Quality Controlled Biochemicals. NPF and cyclic nucleotide analogs (Sigma) were pre-incubated at 23° C. with cells for 20-25 min before adding capsaicin.

[7] = system: rats; conditions: injected into the forebrain of rats, paw-withdraw test; cited from earlier work
[8] = HEK 293 cells, cyclic nucleotide analog pre-incubated 20-25 min before capsaicin

Molecule: O=C(CO)[C@@H](O)[C@H](O)[C@H](O)CO [fructose]
- Anti-correlated signal ([1]; pain^gal4/+, UAS-YC 2.1/+, 74 h AEL, lactose-fructose alternate, ventral sensory neurons in T2 and T3 segments): No
- Anti-correlated signal ([1]; pain^gal4/+, UAS-YC 2.1/+, 96 h AEL, lactose-fructose alternate, chordotonal neurons in A1 segment): No
- Anti-correlated signal ([1]; pain^gal4/+, UAS-YC 2.1/+, 96 h AEL, lactose-fructose alternate, ventral sensory neurons in T2 and T3 segments): Yes
- Anti-correlated signal ([1]; pain^gal4/pain^3, UAS-YC 2.1/+ (pain mutant), 96 h AEL, lactose-fructose alternate, ventral sensory neurons in T2 and T3): No
- response of wild type larvae to sugar media [2]: aversive
- larvae that moved away from the medium / pupated outside of the medium ([2]; w1118 new post-feeding larvae (ca. 96 h AEL), soft agar paste, apple juice or 10% fructose): about 80%
- larval grouping behavior on solid medium [3]: aggregation and cooperative burrowing

Molecule: COc1cc(CNC(=O)CCCC/C=C/C(C)C)ccc1O [capsaicin]
- migratory response to capsaicin agar paste ([4]; 400 nM capsaicin, larvae expressing UAS-TRPV1 driven by pain-gal4): migrate away
- response to capsaicin-agar medium, control larvae ([4]; 25 μM capsaicin, control larvae (e.g., VR1E600K alone, no driver)): no aversive response
- migratory response to capsaicin-agar medium ([4]; 25 μM capsaicin, post-feeding larvae expressing VR1E600K driven by pain-gal4): migrated away
- response of wild type larvae to capsaicin ([2]; wild type Drosophila larvae (no TRPV1)): neither attractive nor aversive response
- medium preference in two-choice assay, post-feeding larvae ([5]; post-feeding VR1E600K-expressing larvae): preference for capsaicin-free media
- medium preference in two-choice assay, feeding larvae ([5]; younger feeding VR1E600K-expressing larvae (74 h AEL)): no such preference
- time to significant Ca2+ influx in response to capsaicin ([6]; HEK293 cells transfected with TRPV1 cDNA alone, 400 nM capsaicin): ≤ 30 s

Molecule: OC[C@H]1O[C@@H](O[C@H]2[C@H](O)[C@@H](O)C(O)O[C@@H]2CO)[C@H](O)[C@@H](O)[C@H]1O (stereo partly drawn) [lactose]
- Anti-correlated signal ([1]; pain^gal4/+, UAS-YC 2.1/+, 96 h AEL, lactose-lactose alternate, ventral sensory neurons in T2 and T3): No
- triggering larval wandering [2]: not effective

Molecule: Nc1ncnc2c1nc(Br)n2[C@@H]1O[C@@H]2COP(=O)(O)O[C@H]2[C@H]1O [8-Br-cAMP]
- effect on TRPV1-mediated Ca2+ influx [6, 8]: significantly increased

Molecule: Nc1nc2c(nc(Br)n2[C@@H]2O[C@@H]3COP(=O)(O)O[C@H]3[C@H]2O)c(=O)[nH]1 [8-Br-cGMP]
- effect on NPFR1 suppression of TRPV1 ([6]; HEK 293 cells expressing NPFR1 and TRPV1, in the presence of 8-Br-cGMP): significantly enhanced
- effect on TRPV1 activity [6, 8]: slightly reduced

Molecule: OC[C@@H](O)[C@@H](O)[C@H](O)[C@@H](O)CO [sorbitol]
- triggering larval wandering [2]: not effective

Molecule: OC[C@H]1O[C@@](CO)(O[C@H]2O[C@H](CO)[C@@H](O)[C@H](O)[C@H]2O)[C@@H](O)[C@@H]1O [sucrose]
- response of wild type larvae to sugar media [2]: aversive

Molecule: NPY: abundant signaling peptide in the brain of mammals
- nociceptive threshold [7]: significantly elevated

B1: NPF: Drosophila neuropeptide F, sole fly homolog of human NPY; synthesized by Quality Controlled Biochemicals (SEQ ID NO: 5) (peptide)
chain: MCQTMRCILVACVALALLAAGCRVEASNSRPPRKNDVNTMADAYKFLQDLDTYYGDRARVRFGKRGSLMDILRNHEMDNINLGKNANNGGEFARGFNEEEIF
modifications: Drosophila melanogaster
- effect of NPF on response to capsaicin ([6]; HEK293 cells co-transfected with NPFR1 and TRPV1 cDNAs, in the presence of NPF (1 mM per FIG. 15 legend), 400 nM capsaicin): drastically attenuated and delayed responses
- effect of NPF on TRPV1 activity ([6]; HEK293 cells transfected with TRPV1 cDNA alone): mild reduction
